Experimental data as given in ChEMBL document CHEMBL3507680, “University of Dundee, Gates Library screen for HepG2 cell viability”.

Assay: Human HepG2 cell viability assay in 384 well format
Format: toxicity, cell-based
Design: dose 125 nL, time 70.5 hour; cytotoxicity at 70.5 h: concentration not given beside the values
Settings: HepG2 cells, read-out: Inhibition

| Structure (SMILES) | cytotoxicity at 70.5 h |
| --- | --- |
| Cc1cccc(Cn2ccc(NS(C)(=O)=O)n2)c1 | -4.99% |
| O[C@@H]1CN(c2nc3ccccc3o2)CC[C@H]1c1ccc2c(c1)OCO2 | 14.9% |
| Cc1nc(C)c(C(=O)N2CCCC(n3ccnc3C)C2)s1 (stereo unspecified) | -3.06% |
| Cc1cccc(CS(=O)(=O)NCC(O)Cc2ccccc2)c1 (stereo unspecified) | 0.192% |
| CCOCCn1c(=O)n(Cc2ccccc2F)c2cc(C(=O)O)cnc21 | 11.9% |
| CCN(CC)C(=O)[C@@H]1C[C@H](n2cc(-c3cccc(OC)c3)nn2)CN1 | -3.79% |
| CCc1nc(C2CCCN2Cc2nnc(CC)o2)no1 (stereo unspecified) | -9.92% |
| Cc1cc(N2CCC(c3ncc[nH]3)CC2)c2ccccc2n1 | -7.19% |
| Cc1nc(C(=O)N2CCOC(Cc3ccc(F)cc3)C2)co1 (stereo unspecified) | -3.27% |
| O=C1NCC2(CCCN(Cc3ccccc3F)C2)Oc2ccccc21 (stereo unspecified) | -14.5% |
| O=C(NCC1CCOC1)N1CCN(Cc2ccc3c(c2)OCO3)CC1 (stereo unspecified) | 3.28% |
| Cn1ccnc(Sc2ccccc2)c1=O | -9.9% |
| CC(C)(C#N)c1ccc(NS(=O)(=O)CC2CCCCO2)cc1 (stereo unspecified) | -0.0974% |
| CC(C)Nc1ncnc2c1CCN(c1cc(C(F)(F)F)ncn1)CC2 | 3.48% |
| c1ncn(Cc2ccc(CNCc3ccc4c(c3)OCCO4)cc2)n1 | -13.3% |
| CCc1nccn1CC1CCCN1S(=O)(=O)Cc1ccccc1 (stereo unspecified) | -10.3% |
| CCCc1nc(C)cc(N2CCNC(C(=O)NC3CC3)C2)n1 (stereo unspecified) | 2.45% |
| COc1c(C2CCCN2C(=O)c2c[nH]c3ncccc23)c(C)nn1C (stereo unspecified) | -5.62% |
| COCCN(Cc1cccs1)C(=O)c1ccc(=O)n(C)c1 | -10.2% |
| CCc1nc(CC(=O)N2CCCC2c2c(C)nn(C)c2OC)cs1 (stereo unspecified) | -8.39% |
| CCOCCCn1c(NC(=O)c2scnc2C)nc2ccccc21 | 30.8% |

| Structure (SMILES) | cytotoxicity at 70.5 h |
| --- | --- |
| CC(C)[C@@H]1CN(C(=O)C2(c3ccccc3)CC2)C[C@H]1C(=O)O | -3.69% |
| CC(Cn1ccnc1)NC(=O)N1CCCN(Cc2cccs2)CC1 (stereo unspecified) | -14% |
| COc1ccc(S(=O)(=O)NC(=O)c2c(C)noc2C(C)C)cc1OC | -2.97% |
| CC(C)COC(C)C(=O)NCc1ccc(-n2cncn2)nc1 (stereo unspecified) | 3.66% |
| CS(=O)(=O)N1CC[C@]2(O)CCN(CCCC(=O)c3ccccc3)C[C@@H]2C1 | -2.45% |
| Cc1cc(N2CCN(C(=O)[C@@H]3C[C@@H]4C=C[C@H]3C4)CC2)nc2ccccc12 | -4.89% |
| COc1ccsc1C(=O)Nc1cc(CN2CCOCC2)ccc1C | 0.784% |
| CC1(C(N)=O)CN(CC2CCOCC2)CCO1 (stereo unspecified) | 53.2% |
| CCc1cccc(N2CCC(NC(=O)c3cc[nH]n3)CC2)c1 | 31.2% |
| O=S(=O)(CCN1CCOC(Cn2cccn2)C1)c1ccccc1 (stereo unspecified) | -7.12% |
| Cc1ccc(CN2CCC(O)(Cn3nc(-c4cccs4)oc3=O)CC2)o1 | -1.27% |
| Cc1nc(CN2C(=O)C[C@@H]3[C@@H]2CCN3S(C)(=O)=O)cs1 | -4.41% |
| N#Cc1nccnc1NCCC1CCN(CC(F)(F)F)CC1 | 21.7% |
| COC(CNC(=O)C1CCN(S(C)(=O)=O)CC1)c1ccc(C)s1 (stereo unspecified) | -12% |
| Cc1nc(C)c(CNC(=O)NC2CC(C)(C)OC2(C)C)s1 (stereo unspecified) | -0.473% |
| Fc1cnccc1CN1CCC2(CCN2c2ncccn2)C1 (stereo unspecified) | -7.95% |
| CN(C)C(=O)c1ccc(C2CCCN2C(=O)c2cccc3c2OCC3)s1 (stereo unspecified) | -6.24% |
| COCCN(Cc1ccc(C)o1)C(=O)Nc1nnc(C(F)F)s1 | -7.33% |
| Cc1cc(C(=O)NCCN2CCN(S(C)(=O)=O)CC2)no1 | -10.9% |
| CCN(C)S(=O)(=O)NCC1CCN(Cc2ccccc2C)CC1 | -9.65% |
| CCc1nc(C)c(C2CC(=O)Nc3c2c(C(C)(C)C)nn3C)[nH]1 (stereo unspecified) | 0.46% |

| Structure (SMILES) | cytotoxicity at 70.5 h |
| --- | --- |
| Cc1nnc2n1CCN(CCOc1ccccc1)C2 | -11.4% |
| Cc1cc2nc(C(C)C)cc(NCc3ccncc3)n2n1 | -7.5% |
| CCC(CN1CCCC1)NC(=O)C1(c2ccc(F)cc2)CC1 (stereo unspecified) | -7.41% |
| c1cc(N2CCC(c3nnc(Cn4ccnc4)n3C3CC3)CC2)ccn1 | -6.52% |
| Cn1ccnc1CN1CCC2(CC1)CCN(c1cncnc1)C2=O | -3.96% |
| Cn1nc(Cn2cccc2)c2c1CN(Cc1ccoc1)C2 | 21.4% |
| CCOCC1CN(C(=O)Cc2ccsc2)Cc2ccnn2C1 (stereo unspecified) | -6.83% |
| CN(C)C(=O)C1(c2cnccn2)CCCN1C(=O)Cc1ccccc1 (stereo unspecified) | -5.41% |
| O=C(CCCc1ccccc1)Nc1cnc(N2CCOCC2)nc1 | 2.35% |
| CCCc1cc(C(=O)NC(c2ccccc2)c2n[nH]c(C)n2)[nH]n1 (stereo unspecified) | -7.51% |
| CN1CCC(c2nnc3ccc(C(=O)N4CCCCC4)cn23)C1 (stereo unspecified) | -9.66% |
| COc1ccc(C(N)=O)cc1NCc1noc(-c2ccsc2)n1 | -10.8% |
| CC(=O)N(C)c1nc(CN2CCCC2Cn2nc(C)cc2C)cs1 (stereo unspecified) | -3.11% |
| COCCCN1Cc2cccc(NC(=O)c3ccccc3Cl)c2C1 | 12.9% |
| Cc1cc2nc(SCC(=O)N3CCOCC3)n(CC(C)C)c(=O)c2[nH]1 | -7.46% |
| O=C(C[C@@H]1COC[C@H]2CN(Cc3ccsc3)C[C@@H]12)N1CCCC1 | -3.89% |
| Cc1ccccc1CN1CCN(C(=O)CN2CCOC2=O)CC1 | -6.85% |
| COc1c(C2CCCN2C(=O)c2cccc(C)n2)c(C)nn1C (stereo unspecified) | -16.2% |
| O=C(c1nnn(-c2ccccc2Cl)c1-c1ccccn1)N1CCSCC1 | -2.09% |
| CN(C)C(=O)CO[C@H]1CN(Cc2nccs2)[C@@H]2COC[C@H]12 | -9.59% |
| COCC(=O)N1CCc2nc(C(=O)N(C)C)sc2CC1 | 27.3% |

| Structure (SMILES) | cytotoxicity at 70.5 h |
| --- | --- |
| Cc1cc(CC(=O)NC(C)c2ccc(OCC3CC3)c(F)c2)n[nH]1 (stereo unspecified) | -7.64% |
| CC(C(=O)N1CCN(c2ccc(F)cc2)CC1)n1ccnc1 (stereo unspecified) | -3.73% |
| O=c1cc(N2CCCC2)cnn1CC(F)F | -6.13% |
| CN(C)c1nccc(C2CN(S(C)(=O)=O)C2)n1 | -1.11% |
| CC(C)(O)C1CCN(C(=O)Nc2nc(-c3ccccc3)ns2)CC1 | -4.79% |
| O=C(NCCCn1ccnc1)C1CCC(=O)N1Cc1cccs1 (stereo unspecified) | -9.7% |
| CC(C)n1ccc(=O)nc1SC1CCN(c2ccccc2F)C1=O (stereo unspecified) | -1.73% |
| Nc1cc(N2CCOCC(Cc3ccc4[nH]ccc4c3)C2)ncn1 (stereo unspecified) | -0.988% |
| Cc1noc(CCCNC(=O)C2CSCN2C(=O)C(C)(C)C)n1 (stereo unspecified) | 18.7% |
| O=C(NCC1CC(=O)N(CCc2ccccc2)C1)c1c(F)cccc1F (stereo unspecified) | 3.42% |
| Cc1cnn(C2CCCN(C(=O)c3ccnc(N(C)C)c3)C2)c1 (stereo unspecified) | 28.8% |
| CO[C@@H]1CN(C)S(=O)(=O)[C@@]12CCN(Cc1ccccc1)C2 | -7.27% |
| CCc1cc(N(C)Cc2ccno2)n2nc(C)c(C)c2n1 | -2.75% |
| CCCn1nccc1S(=O)(=O)N1CCC2(CCCN(C(C)C)C2=O)C1 (stereo unspecified) | 17.4% |
| CC(C)c1noc(C[S+]([O-])CC(=O)Nc2cc(F)ccc2F)n1 (stereo unspecified) | -3.52% |
| CCN1CCC2(CC1)c1nc[nH]c1CCN2S(C)(=O)=O | -6.08% |
| CN1CC[C@]2(CN(C(=O)c3ccc[nH]3)C[C@H]2c2ccccc2)C1=O | -3.54% |
| COc1ccccc1OCCC(=O)NCc1ncc(C)c(OC)c1C | -4.64% |
